Structures can show the parent of a compound that is named as a salt.
Target: T1, human calcium receptor (Homo sapiens, UniProt P41180)
T1 construct: expressed in transfected cells
T1 sequence (P41180 20-1078): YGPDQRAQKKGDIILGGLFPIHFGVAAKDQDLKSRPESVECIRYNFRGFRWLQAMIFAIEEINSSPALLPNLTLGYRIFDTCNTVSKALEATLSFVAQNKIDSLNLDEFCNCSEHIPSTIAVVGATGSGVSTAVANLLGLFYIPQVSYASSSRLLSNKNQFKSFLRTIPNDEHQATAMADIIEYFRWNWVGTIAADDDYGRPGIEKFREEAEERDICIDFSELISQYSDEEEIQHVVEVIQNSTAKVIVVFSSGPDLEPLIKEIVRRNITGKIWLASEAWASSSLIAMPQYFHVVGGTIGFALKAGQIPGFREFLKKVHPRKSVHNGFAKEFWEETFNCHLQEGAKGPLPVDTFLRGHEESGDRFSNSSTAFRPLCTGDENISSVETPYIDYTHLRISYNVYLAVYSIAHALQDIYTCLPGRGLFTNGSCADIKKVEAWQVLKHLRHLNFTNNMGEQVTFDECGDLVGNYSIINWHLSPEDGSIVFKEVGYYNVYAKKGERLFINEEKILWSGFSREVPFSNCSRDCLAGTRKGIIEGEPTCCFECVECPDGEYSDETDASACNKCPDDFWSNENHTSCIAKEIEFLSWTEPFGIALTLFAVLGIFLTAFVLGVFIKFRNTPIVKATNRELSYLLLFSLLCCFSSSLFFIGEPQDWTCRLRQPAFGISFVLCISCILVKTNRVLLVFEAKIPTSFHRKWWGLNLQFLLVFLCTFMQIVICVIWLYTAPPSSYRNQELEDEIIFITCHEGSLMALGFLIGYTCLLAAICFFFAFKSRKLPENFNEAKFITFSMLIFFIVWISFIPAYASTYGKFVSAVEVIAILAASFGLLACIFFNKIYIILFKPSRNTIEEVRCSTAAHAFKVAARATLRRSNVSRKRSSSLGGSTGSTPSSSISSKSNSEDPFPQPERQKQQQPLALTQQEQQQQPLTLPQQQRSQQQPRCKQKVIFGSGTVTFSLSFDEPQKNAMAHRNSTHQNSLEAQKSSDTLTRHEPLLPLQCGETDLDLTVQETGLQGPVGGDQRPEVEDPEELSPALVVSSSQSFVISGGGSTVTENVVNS
Test: Calcium Receptor Inhibitor Assay
Type: cell-based
Conditions: not given
Description: This example illustrates the use of the Calcium Receptor Inhibitor Assay. […] Res. 10 Suppl. […] Intracellular Ca^2+ was measured using fluo-3, a fluorescent calcium indicator.
The procedure was as follows:
1. Cells were maintained in T-150 flasks in selection media (DMEM supplemented with 10% fetal bovine serum and 200 μg/mL hygromycin B), under 5% CO2:95% air at 37° C. and were grown up to 90% confluency.
2. The medium was decanted and the cell monolayer was washed twice with phosphate-buffered saline (PBS) kept at 37° C. After the second wash, 6 mL of 0.02% EDTA in PBS was added and incubated for 4 minutes at 37° C. Following the incubation, cells were dispersed by gentle agitation.
3. Cells from 2 or 3 flasks were pooled and pelleted (100×g). The cellular pellet was resuspended in […] of SPF-PCB+ and pelleted again by centrifugation. This washing was done twice.
SPF-PCB was made up and stored at 4° C. On the day of use, SPF-PCB was supplemented with 1 mg/mL of D-glucose and 1 mM CaCl2 and then split into two fractions. To one fraction, bovine serum albumin (BSA; fraction V, ICN) was added at 5 mg/mL (SPF-PCB+). This buffer was used for washing, loading and maintaining the cells. The BSA-free fraction was used for diluting the cells in the cuvette for measurements of fluorescence.
5. Following the incubation period, the cells were pelleted by centrifugation. The resulting pellet was washed with SPF-PCB+. After this washing, cells were resuspended in SPF-PCB+ at a density of 1–2×10^6 cells/mL.
6. For recording fluorescent signals, 300 μL of cell suspension were diluted in 1.2 mL of SPF buffer containing 1 mM CaCl2 and 1 mg/mL of D-glucose. Measurements of fluorescence were performed at 37° C. with constant stirring using a spectrofluorimeter. […] To calibrate fluorescence signals, digitonin (5 mg/mL in ethanol) was added to obtain Fmax, and the apparent Fmin was determined by adding Tris-EGTA (2.5 M Tris-Base, 0.3 M EGTA).
7. To determine the potential calcilytic activity of test compounds, cells were incubated with test compound (or vehicle as a control) for 90 seconds before increasing the concentration of extracellular Ca^2+ from 1 to 2 mM. Calcilytic compounds were detected by their ability to block, in a concentration-dependent manner, increases in the concentration of intracellular Ca^2+ elicited by extracellular Ca^2+.

SMILES | IC50 [µM]
C=CCOCC(O)CNC(C)(C)Cc1ccc(OC)cc1 (stereo not drawn) [Compound 29, N-(2-Hydroxy-3-allyloxypropyl)-1,1-dimethyl-2-(4-methoxyphenyl)ethylamine] | < 50
CCCCCCCCOCC(O)CNC(C)(C)Cc1ccc(OC)cc1 (stereo not drawn) [Compound 65, N-(2-Hydroxy-3-octanoxypropyl)-1,1-dimethyl-2-(4-methoxyphenyl)ethylamine] | < 1
COc1ccc(CC(C)(C)NCC(O)CSc2ccccc2)cc1 (stereo not drawn) [Compound 68, N-(2-Hydroxy-3-thiophenylpropyl)-1,1-dimethyl-2-(4-methoxyphenyl)ethylamine] | < 10
COc1ccc(CC(C)(C)NCC(O)CCCCCCCCO)cc1 (stereo not drawn) [Compound 123, N-(2,10-Dihydroxydecyl)-1,1-dimethyl-2-(4-methoxyphenyl)ethylamine Hydrochloride] | < 10
COc1ccc(CC(C)(C)NCC(O)CCc2ccccc2)cc1 (stereo not drawn) [Compound 79, N-(2-Hydroxy-4-phenylbutyl)-1,1-dimethyl-2-(4-methoxyphenyl)ethylamine Hydrochloride] | < 50
COc1ccc(CC(C)(C)NCCCc2ccccc2)cc1 [Compound 22, N-(3-phenylpropyl)-1,1-dimethyl-2(4-methoxyphenyl)ethylamine] | > 50
CCCCCCCCC(O)CNC(C)(C)Cc1ccc(OC)cc1 (stereo not drawn) [Compound 69, N-(2-Hydroxydecanyl)-1,1-dimethyl-2-(4-methoxyphenyl)ethylamine] | < 1
COc1ccc(CC(C)(C)NCC(O)CCc2cccc(Cl)c2Cl)cc1 (racemic) [Compound 163] | < 1

Same assay, conditions: HEK 293 4.0–7 cells stably expressing the human calcium receptor; fluo-3; read-out: IC50 for blocking increases of intracellular Ca2+ elicited by extracellular Ca2+

SMILES | IC50 [µM]
COc1ccc(CC(C)(C)NCC(O)COCCCCCCc2ccccc2)cc1 (stereo not drawn) [Compound 126, N-[2-hydroxy-3-(6-phenyl-hexanoxy)propyl]-1,1-dimethyl-2-(4-methoxyphenyl)ethylamine] | < 1
COc1ccc(CC(C)(C)NCC(O)COc2cccc3[nH]c(C(N)=O)cc23)cc1 (stereo not drawn) [Compound 9, N-[2-Hydroxy-3-(4-(2-carboxamido)indoloxy)propyl]-1,1-dimethyl-2-(4-methoxyphenyl)ethylamine Hydrochloride] | < 50
COc1ccc(CC(C)(C)NCC(O)COc2ccccc2F)cc1 (stereo not drawn) [Compound 41, N-[2-Hydroxy-3-(2-fluorophenoxy)propyl]-1.1-dimethyl-2-(4-methoxyphenyl)ethylamine Hydrochloride] | < 10
CCCN(CCC)S(=O)(=O)c1ccc(OC[C@H](O)CNC(C)(C)Cc2ccc(OC)cc2)c(Cl)c1Cl [Compound 165, N-[2(R)-Hydroxy-3-[(2,3-dichloro-4-dipropylsulfamoyl)phenoxyl-1-propyl]-N-[1,1-dimethyl-2-(4-methoxyphenyl)ethyl]amine hydrochloride salt] | < 1
CC(C)(Cc1ccc(Cl)cc1)NCC(O)COc1ccccc1 (stereo not drawn) [Compound 103, N-(2-Hydroxy-3-phenoxypropyl)-1,1-dimethyl-2-(4-chlorophenyl)ethylamine Hydrochloride] | < 10
COc1ccc(CC(C)(C)NCC(O)COc2cccc3[nH]c(O)nc23)cc1 (stereo not drawn) [Compound 1] | < 50
COc1ccc(CC(C)(C)NCC(O)CCc2cccc3ccccc23)cc1 (racemic) [Compound 162, (R/S)-1-[[2,2-dimethyl-(4′methoxy)phenethyl]]amino-2-hydroxy-4(1′-naphthyl)-butane] | < 10
COc1ccc(CC(C)(C)NCC(O)COc2ccccc2C(C)C)cc1 (stereo not drawn) [Compound 153, N-[2-hydroxy-3-(2-iso-propylphenoxy)propyl]-1,1-dimethyl-2-(4-methoxyphenyl)ethylamine Hydrochloride] | < 1
COc1ccc(CC(C)(C)NCC(O)COc2ccccc2)cc1 (stereo not drawn) [Compound 3, N-(2-Hydroxy-3-phenoxypropyl)-1,1-dimethyl-2-(4-methoxyphenyl)ethylamine Hydrochloride] | < 10
COc1ccc(CC(C)(C)NCC(O)COc2ccc(F)cc2)cc1 (stereo not drawn) [Compound 44, N-[2-Hydroxy-3-(4-fluorophenoxy)propyl]-1,1-dimethyl-2-(4-methoxyphenyl)ethylamine Hydrochloride] | < 1
COc1ccc(CC(C)(C)NCC(O)COc2cccc(Cl)c2)cc1 (stereo not drawn) [Compound 43, N-[2-Hydroxy-3-(3-chlorophenoxy)propyl]-1,1-dimethyl-2-(4-methoxyphenyl)ethylamine Hydrochloride] | < 1
COc1ccc(CC(C)(C)NCCOc2ccccc2)cc1 [Compound 53, N-(2-phenoxyethyl)-1,1-dimethyl-2-(4-methoxyphenyl)ethylamine] | > 50
COc1ccc(CC(C)(C)NC[C@@H](O)COc2ccc(C(C)(C)C)cc2)cc1 (racemic) [Compound 20, (R) and (S)—N-[2-Hydroxy-3-(4-t-butylphenoxy)propyl]-1,1-dimethyl-2-(4-methoxyphenyl)ethylamine Hydrochloride] | < 1
COc1ccc(CC(C)(C)NCC(O)COc2cc(C(F)(F)F)cc(C(F)(F)F)c2)cc1 (stereo not drawn) [Compound 156, N-[2-hydroxy-3-(3,5-bistrifluoromethylphenoxy)propyl]-1,1-dimethyl-2-(4-methoxyphenyl)ethylamine Hydrochloride] | < 1
COc1ccc(CC(C)(C)NCCCOc2cccc3ccccc23)cc1 [Compound 42, N-(3-(1-napthoxy)propyl)-1,1-dimethyl-2-(4-methoxyphenyl)] | < 50
CC(C)(Cc1ccc2ccccc2c1)NCC(O)COc1ccccc1 (stereo not drawn) [Compound 120, N-(2-Hydroxy-3-phenoxypropyl)-1,1-dimethyl-2-(2-naphthyl)ethylamine Hydrochloride] | < 1
CC(C)(Cc1cccc(Cl)c1)NCC(O)COc1ccccc1 (stereo not drawn) [Compound 104, N-(2-Hydroxy-3-phenoxypropyl)-1,1-dimethyl-2-(3-chlorophenyl)ethylamine Hydrochloride] | < 10
COc1ccc(CC(C)(C)NCC(O)COc2cccc(-c3ccccc3)c2)cc1 (stereo not drawn) [Compound 61, N-[2-hydroxy-3-(3-phenylphenoxy)propyl]-1,1-dimethyl-2-(4-methoxyphenyl)ethylamine] | < 10
COc1ccc(CC(C)(C)NC[C@@H](O)COc2cccc3ccccc23)cc1 (single isomer, unassigned) [Compound 105, Hydrochloride] | < 1
COc1ccc(CC(C)(C)NCC(O)COc2ccc(OC)cc2)cc1 (stereo not drawn) [Compound 7, N-[2-Hydroxy-3-(4-methoxyphenoxy)propyl]-1,1-dimethyl-2-(4-methoxyphenyl)ethylamine Hydrochloride] | < 10
COc1ccc(CC(C)(C)NCC(O)COc2cccc(Cl)c2C#N)cc1 (stereo not drawn) [Compound 119, N-[2-Hydroxy-3-(3-chloro-2-cyanophenoxy)propyl]-1,1-dimethyl-2-(4-methoxyphenyl)ethylamine Hydrochloride] | < 1
CCCCCCCCCCOCC(O)CNC(C)(C)Cc1ccc(OC)cc1 (stereo not drawn) [Compound 67, N-(2-Hydroxy-3-decanoxypropyl)-1,1-dimethyl-2-(4-methoxyphenyl)ethylamine] | < 1

From US7202261B2, “Calcilytic compounds” (NPS Pharmaceuticals, Inc., priority 1996, dated 2007)
